From US5298494A, “Monosaccharides having anti-proliferation and anti-inflammatory activity, compositions and uses thereof” (Greenwich Pharmaceuticals Incorporated, priority 1993, dated 1994)

What was measured:
[1] = tested on: PGE2 production by BUD-8 skin cell fibroblasts; test: PGE2 production by BUD-8 skin cell fibroblasts (radioimmunoassay); assay type: cell-based, human
Protocol: (§1) The effect of the compound of the present invention on the proliferative capacity of human BUD-8 skin fibroblasts was measured with the use of a ^3 H-thymidine incorporation assay using culture conditions which were similar to those used for a Con-A blastogenesis assay, described previously. Cultured skin cells were detached from the surface of tissue culture flasks mechanically with a Teflon scraper. The cells were washed, resuspended in incubation medium and the viabilities were determined. These cells were then plated in triplicate at a density of 2×10^3 cells/0.1 ml/microtiter well for the proliferation assay and a density of 1×10^4 cells/0.1 ml/microtiter well for the assays to quantitate PGE2 and LTB4. To these cells was added incubation medium containing indomethacin to inhibit prostaglandin production, or nordihydroguaiaretic acid (NDGA) to inhibit leukotriene production (positive controls).
(§2) After 18 hours of culture, samples of the BUD-8 skin cell supernatants were collected from one set of microtiter plates and frozen until assayed for PGE2 or for LTB4 content using the radioimmunoassays described below.
A radioinmunoassay (New England Nuclear) was used to quantitate PGE2 levels in BUD-8 skin cell culture supernatants. Briefly, into each polypropylene tube were mixed 0.1 ml anti-PGE2, 0.1 ml ^125 1-PGE2 and 0.1 ml PGE2 standard or PGE2 containing sample. The BUD-8 skin culture supernatants were diluted 1:2 prior to addition to the radioimmunoassay. Tubes were refrigerated overnight. A polyethylene glycol solution (16%, 6,000 m.w.) was then added to precipitate immune complexes and the radioactivity in the precipitate was counted in a gamma counter.

[2] = tested on: LTB4 production by BUD-8 skin cell fibroblasts; test: LTB4 production by BUD-8 skin cell fibroblasts (radioimmunoassay); assay type: cell-based, human
Protocol: as §1, §2
Levels of LTB4 in aliquots of BUD-8 skin cell cultures supernatants were quantitated by radioimmunoassay (New England Nuclear). Briefly, into each polyproplyene tube were mixed 0.1 ml anti-LTB4, 0.1. ml ^3 H-LTB4 and 0.1 ml LTB4 standard or LTB4 containing sample. The BUD-8 skin cell culture supernatants were used directly in the radioimmunoassay. Tubes were refrigerated overnight. A charcoal solution (0.5 ml of 0.5% charcoal Norit A) was added and each tube was centrifuged. The radioactivity in the supernatant was then counted in a liquid scintillation counter.

[3] = tested on: BUD-8 human skin fibroblasts; test: Fibroblast assay: proliferation of BUD-8 skin cell fibroblasts; assay type: cell-based
Protocol: The human skin cell fibroblast line, BUD-8 was obtained prior to each assay from the American Type Culture Collection. This is a fibroblast-like cell line which was originally derived from the normal skin of a person.
BUD-8 cell cultures were expanded for use in 25 cm^2 flasks at 37° C. in an atmosphere of 5% CO2 in air. At approximately 4-5 five day intervals, or when confluence was reached, the cells were passaged. This was accomplished by detaching the cells with a Teflon scraper, washing and reseeding the cells at a lower density into fresh tissue culture flasks.
as §1
After 3 days of culture, 1 uCi ^3 H-thymidine was added in a 50 ul volume to each culture well of the microtiter plates. Eighteen hours later, each of the BUD-8 cultures was examined morphologically for evidence of compound-induced toxicity such as cell rounding or granularity. The thymidine-pulsed cells were then precipitated and the amount of ^3 H-thymidine incorporated was counted in a liquid scintillation counter.
The concentrations of the compounds of the invention which were used in these assays were:
The incubation medium used for culturing the BUD-8 cells was RPMI-1640 medium containing 10% fetal bovine serum, 100 ug/ml streptomycin, 100 U/ml penicillin, 0.2M Hepes buffer solution, 5×10^-5 M 2-mercaptoethanol and 2 mM glutamine.

CC1(C)OC2OC3C(O)COC3(O)C2O1 [IV, (3S) 1,2-O-isopropylidene-α-D-ribo-hexos-3-ulose-1,4:3,6-difuranose]
effect on PGE2 production in words [1]: significantly decrease of levels of both pro-inflammatory mediators are seen at several non-toxic doses | PGE2 in supernatant ([1]; 1 ug/ml): 7.1 ± 1.0 pg PGE2 /50 ul supernatant | calculated PGE2 produced/10^5 BUD-8 cells ([1]; 1 ug/ml): 336 pg per 10^5 cells | PGE2 in supernatant ([1]; 10 ug/ml): 7.5 ± 0.9 pg PGE2 /50 ul supernatant | calculated PGE2 produced/10^5 BUD-8 cells ([1]; 25 ug/ml): 366 pg per 10^5 cells | PGE2 in supernatant ([1]; 100 ug/ml): 13.6 ± 4.4 pg PGE2 /50 ul supernatant | calculated PGE2 produced/10^5 BUD-8 cells ([1]; 100 ug/ml): 850 pg per 10^5 cells | PGE2 in supernatant ([1]; 300 ug/ml): 23.7 ± 1.5 pg PGE2 /50 ul supernatant | calculated PGE2 produced/10^5 BUD-8 cells ([1]; 300 ug/ml): 1654 pg per 10^5 cells | PGE2 in supernatant ([1]; 750 ug/ml): 4.0 ± 0.5 pg PGE2 /50 ul supernatant | calculated PGE2 produced/10^5 BUD-8 cells ([1]; 750 ug/ml): 82 pg per 10^5 cells | inhibition at 1 µg/mL ([1]; Homo sapiens, Fibroblast, 18 h, 1 ug/ml, read-out: % Effect on PGE2 production): 51% | inhibition at 10 µg/mL ([1]; Homo sapiens, Fibroblast, 18 h, 10 ug/ml, read-out: % Effect on PGE2 production): 52% | inhibition at 25 µg/mL ([1]; Homo sapiens, Fibroblast, 18 h, 25 ug/ml, read-out: % Effect on PGE2 production): 52% | inhibition at 100 µg/mL ([1]; Homo sapiens, Fibroblast, 18 h, 100 ug/ml, read-out: % Effect on PGE2 production): 59% | inhibition at 300 µg/mL ([1]; Homo sapiens, Fibroblast, 18 h, 300 ug/ml, read-out: % Effect on PGE2 production): 67% | inhibition at 750 µg/mL ([1]; Homo sapiens, Fibroblast, 18 h, 750 ug/ml, read-out: % Effect on PGE2 production): 65% | effect on LTB4 production in words [2]: significantly decrease of levels of both pro-inflammatory mediators are seen at several non-toxic doses | LTB4 in supernatant (Table XXI) ([2]; 1 ug/ml): 36.4 ± 5.2 pg LTB4 100 ul supernatant | calculated LTB4 produced/10^5 BUD-8 cells ([2]; 1 ug/ml): 1,621 pg per 10^5 cells | LTB4 in supernatant (Table XXI) ([2]; 10 ug/ml): 19.9 ± 3.8 pg LTB4 100 ul supernatant | LTB4 in supernatant (Table XXI) ([2]; 25 ug/ml): 17.7 ± 3.8 pg LTB4 100 ul supernatant | calculated LTB4 produced/10^5 BUD-8 cells ([2]; 25 ug/ml): 683 pg per 10^5 cells | LTB4 in supernatant (Table XXI) ([2]; 100 ug/ml): 17.3 ± 0.9 pg LTB4 100 ul supernatant | calculated LTB4 produced/10^5 BUD-8 cells ([2]; 100 ug/ml): 665 pg per 10^5 cells | LTB4 in supernatant (Table XXI) ([2]; 300 ug/ml): 25.7 ± 5.0 pg LTB4 100 ul supernatant | calculated LTB4 produced/10^5 BUD-8 cells ([2]; 300 ug/ml): 1,083 pg per 10^5 cells | LTB4 in supernatant (Table XXI) ([2]; 750 ug/ml): 23.5 ± 0.2 pg LTB4 100 ul supernatant | calculated LTB4 produced/10^5 BUD-8 cells ([2]; 750 ug/ml): 973 pg per 10^5 cells | inhibition at 1 µg/mL ([2]; Homo sapiens, Fibroblast, 18 h, 1 ug/ml, read-out: % Effect on LTB4 production): -2% | inhibition at 10 µg/mL ([2]; Homo sapiens, Fibroblast, 18 h, 10 ug/ml, read-out: % Effect on LTB4 production): 45% | inhibition at 25 µg/mL ([2]; Homo sapiens, Fibroblast, 18 h, 25 ug/ml, read-out: % Effect on LTB4 production): 51% | inhibition at 100 µg/mL ([2]; Homo sapiens, Fibroblast, 18 h, 100 ug/ml, read-out: % Effect on LTB4 production): 52% | inhibition at 300 µg/mL ([2]; Homo sapiens, Fibroblast, 18 h, 300 ug/ml, read-out: % Effect on LTB4 production): 28% | inhibition at 750 µg/mL ([2]; Homo sapiens, Fibroblast, 18 h, 750 ug/ml, read-out: % Effect on LTB4 production): 35% | ^3 H-Thymidine uptake by BUD-8 skin cells ([3]; 1 ug/ml): 3,607 ± 87 cpm | ^3 H-Thymidine uptake by BUD-8 skin cells ([3]; 10 ug/ml): 4,077 ± 374 cpm | ^3 H-Thymidine uptake by BUD-8 skin cells ([3]; 25 ug/ml): 3,791 ± 451 cpm | ^3 H-Thymidine uptake by BUD-8 skin cells ([3]; 100 ug/ml): 4,032 ± 3 cpm | ^3 H-Thymidine uptake by BUD-8 skin cells ([3]; 300 ug/ml): 2,882 ± 387 cpm | ^3 H-Thymidine uptake by BUD-8 skin cells ([3]; 750 ug/ml): 2,658 ± 247 cpm | inhibition at 1 µg/mL ([3]; Homo sapiens, Skin fibroblast, 1 ug/ml, read-out: % Effect on BUD-8 proliferation): 51% | inhibition at 10 µg/mL ([3]; Homo sapiens, Skin fibroblast, 10 ug/ml, read-out: % Effect on BUD-8 proliferation): 44% | inhibition at 25 µg/mL ([3]; Homo sapiens, Skin fibroblast, 25 ug/ml, read-out: % Effect on BUD-8 proliferation): 48% | inhibition at 100 µg/mL ([3]; Homo sapiens, Skin fibroblast, 100 ug/ml, read-out: % Effect on BUD-8 proliferation): 45% | inhibition at 300 µg/mL ([3]; Homo sapiens, Skin fibroblast, 300 ug/ml, read-out: % Effect on BUD-8 proliferation): 61% | inhibition at 750 µg/mL ([3]; Homo sapiens, Skin fibroblast, 750 ug/ml, read-out: % Effect on BUD-8 proliferation): 64%
